From patent publication US9403806B1, “Cognition enhancing compounds and compositions, methods of making, and methods of treating” (NeuroSolis, Inc., priority 2010, dated 2016)
Read-outs that look alike come from different tables or passages of the source.

Assays:
anesthetized rats = assay: Salivation after iontophoretic transdermal co-delivery of agonist and antagonist; format: in vivo, Long Evans Hooded rats; settings: anesthetized rat, one patch with 1 mg Compound 3 plus 0.01 mg antagonist
Procedure: Experimental compounds and drug substances were delivered transdermally in rats using iontophoresis as follows. The fur was shaved from the backs of Long Evans Hooded rats weighing 225 to 325 grams, using electric clippers. Experimental compounds and drug substances were formulated at suitable concentrations an aqueous mixture of the following composition:
The polyvinyl alcohol/water was heated to 95 deg C. until it became clear, then the other constituents were added and mixed well. The mixture was introduced into suitable molds containing a disc-shaped cavity 2.2 cm diameter and 2.2 mm deep. Molds may be fabricated using two glass sheets separated by a silicone rubber sheet with suitable sized cavities and filling ports cut-outs. The molds were subject to 3 freeze-thaw cycles at −80 deg C. and 20 deg C. until a firm cryogel was obtained. The gels were separated from the molds and trimmed into a circular shape. The gel was placed in a silicone rubber casing with one face in contact with a circular silver foil anodic electrode (22 mm dia/250 microns thick), and the assembly was placed on the shaved skin of the rat such that the other face was in contact with the skin on one side of the back of the rat. The rubber casing formed a seal over and around the gel/electrode assembly. […] This was placed on the other side of the shaved back of the rat, the edges of the gel discs being about 20 mm apart at their nearest point. A DC voltage was applied across the two patches from a constant-current DC power supply and the voltage adjusted to obtain the desired current, such that the skin of the animal completed the electrical circuit.
The devices were placed on shaved backs of anesthetized rats and salivation was measured.
The animals were placed slightly head-down on an inclined, heated ramp. Rectal temperature was monitored using a thermocouple and the temperature of the heating pad was adjusted manually to maintain normal body temperature. Saliva was collected from the mouth by absorption onto pre-weighed slips of filter paper. The filter paper was changed periodically and the amount of saliva was measured by weighing the filter paper slips

[1] = test system: salivary gland inositol phosphate; assay: In vivo tissue inositol phosphate signaling pathway activation, salivary gland; set-up: species or system Long Evans Hooded rats; settings: rat; for block of increase in salivary gland inositol phosphate caused by Compound 3: Compound 3 1 mg/kg, tertiary amine antagonist 0.1 mg/kg (FIGS. 8C, 8D); for inhibition of salivary gland inositol phosphate response to MCD-386: MCD-386 50 mg/kg, antagonist 0.3 mg/kg (FIG. 7)
Procedure: Experimental compounds or drug substances were administered using standard techniques to Long Evans Hooded rats weighing 225 to 350 grams, and which had been pretreated with a subcutaneous injection of lithium chloride at a suitable dose between 3 and 10 mmoles per kg. At suitable times the animals were briefly anesthetized using 5% isoflurane and euthanized by decapitation. The brains and submaxillary salivary glands were rapidly dissected out, and the hippocampuses were dissected from the brains. The dissected tissues were homogenized in a suitable volume of ice-cold phosphate-buffered saline containing 10 mM lithium chloride, pH7.4, using a tissue homogenizer, and used immediately or frozen in aliquots at −80 deg C. for future use. The concentration of inositol-1-phosphate was determined in the homogenates using the IPOne TR-FRET assay (CisBio cat no 621PAPEB), following the manufacturer's instruction

CD-I mice = assay: Apomorphine induced climbing model of psychosis; format: in vivo; settings: APO 2 mg/kg alone
Procedure: As described in Costall et. al. European Journal of Pharmacology 1978, 50, 39. individual CD-I mice, 1-2 months old, were placed in a cylindrical wire mesh cage (13.2 cm high×13.2 cm diameter) constructed of steel wire 1 mm thick spaced at 1.2 cm^2. Cylinders were placed in a standard OptiMICE mouse cage (29×32×9×29 cm and 14 cm high) with adequate wood chip bedding provided. Observations of climbing (defined as 3 or more paws of the ground) were carried out every 5 minutes at a duration of 1 minute for […]. Animals were injected subcutaneously under isoflurane anesthesia with test compounds, reference compounds, which included clozapine, haloperidol, olanzapine and xanomeline, or PBS as a control. This was followed 5 minutes later by 2 mg/kg apomorphine hydrochloride. All drugs were dissolved in PBS or a mixture of (by volume) 96% PBS and 4% hydroxypropyl-beta-cyclodextrin, and dosed at a rate of 5 ml per kilogram of body weight. Following injections, animals were replaced in the mesh cages and observed for climbing (defined as 3 or more paws off the ground) every 5 minutes for 1 minute for 60 minutes after dosing.

[2] = biological target: T1, human muscarinic M3 receptors (Homo sapiens, UniProt P20309); format: cell-based; settings: for huM3/A9L Smax: percentage of maximal stimulation by carbachol; for huM3/A9L Potency relative to carbachol: relative to the potency of carbachol at its EC50
T1 construct: host or cells: A9L cells
T1 sequence (P20309 whole entry): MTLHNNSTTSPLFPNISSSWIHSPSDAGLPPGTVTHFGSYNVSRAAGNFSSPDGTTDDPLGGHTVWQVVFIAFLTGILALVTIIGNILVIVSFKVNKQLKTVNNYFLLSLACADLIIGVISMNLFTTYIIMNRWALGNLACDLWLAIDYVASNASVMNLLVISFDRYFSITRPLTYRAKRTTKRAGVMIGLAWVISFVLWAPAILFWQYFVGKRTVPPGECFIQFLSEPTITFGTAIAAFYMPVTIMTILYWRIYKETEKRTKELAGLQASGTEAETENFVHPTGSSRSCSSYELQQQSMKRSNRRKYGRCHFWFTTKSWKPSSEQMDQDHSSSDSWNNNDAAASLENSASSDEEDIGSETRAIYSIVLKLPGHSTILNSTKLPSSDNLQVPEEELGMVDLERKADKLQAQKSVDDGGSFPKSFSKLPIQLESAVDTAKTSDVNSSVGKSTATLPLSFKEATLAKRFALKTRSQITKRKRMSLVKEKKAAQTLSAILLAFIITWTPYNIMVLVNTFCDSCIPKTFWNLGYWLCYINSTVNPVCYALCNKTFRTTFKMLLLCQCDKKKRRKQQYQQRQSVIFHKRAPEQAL

[3] = biological target: T2, human muscarinic M1 receptors (Homo sapiens, UniProt P11229); format: cell-based; settings: for huM1/A9L Smax: percentage of maximal stimulation by carbachol; for huM1/A9L Potency relative to carbachol: relative to the potency of carbachol at its EC50
T2 construct: host or cells: A9L cells
T2 sequence (P11229 1-460): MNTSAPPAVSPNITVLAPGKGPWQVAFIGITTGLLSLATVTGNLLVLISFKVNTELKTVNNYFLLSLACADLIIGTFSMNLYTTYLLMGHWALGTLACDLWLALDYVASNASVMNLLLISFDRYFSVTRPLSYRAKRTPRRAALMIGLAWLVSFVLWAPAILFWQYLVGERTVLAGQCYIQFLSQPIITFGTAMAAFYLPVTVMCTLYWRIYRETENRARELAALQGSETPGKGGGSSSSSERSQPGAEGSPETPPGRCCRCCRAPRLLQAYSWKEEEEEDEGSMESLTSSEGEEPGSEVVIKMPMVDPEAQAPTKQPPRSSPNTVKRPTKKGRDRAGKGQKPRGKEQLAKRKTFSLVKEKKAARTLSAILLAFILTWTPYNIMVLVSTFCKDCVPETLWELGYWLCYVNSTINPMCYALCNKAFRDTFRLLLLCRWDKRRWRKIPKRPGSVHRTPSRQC

[4] = test system: muscarinic M1 receptors in the hippocampus; assay: In vivo inositol phosphate increase in hippocampus, Example 44; set-up: species or system Long Evans Hooded rats; settings: rat, 3 mg/kg sc
Procedure: (§1) In lithium chloride-treated laboratory rodents, engagement of muscarinic M1 receptors in the hippocampus may usefully be evaluated in vivo by measuring the increase in the tissue of inositol phosphate (Bymaster F P et al Brain Res 795 (1998) 179-190). This may also be extended to measure engagement of muscaric M3 receptors in the salivary glands.
(§2) Experimental compounds were administered subcutaneously at 3 mg/kg using standard techniques to Long Evans Hooded rats weighing 225 to 350 g, and which had been pretreated with a subcutaneous injection of lithium chloride at a suitable dose between 3 and 5 mmole/kg. At suitable times the animals were briefly anesthetized using 5% isoflurane and euthanized by decapitation. The brains and submaxillary salivary glands were rapidly dissected out, and the hippocampuses were dissected from the brains. The dissected tissues were homogenized in a suitable volume of ice-cold phosphate-buffered saline containing 10 mM lithium chloride (pH=7.4) using a tissue homogenizer, and used immediately or frozen in aliquots at −80° C. for future use. The concentration of inositol-1-phosphate was determined in the homogenates using the […] IP-One Terbium TR-FRET assay kit (Cisbio Bioassays, cat. #62IPAPEJ) according to the manufacturer's instructions.

[5] = test system: pooled male human liver microsomes; assay: Metabolism in human liver microsomes, Example 45; format: in vitro ADME
Procedure: Aliquots were removed every 2 hours, and 1% formic acid was added to halt the reaction. Samples were centrifuged, filtered through 0.2 micron spinfilter, and the amount of each compound in the supernatants was quantitated using LC/MS/MS as follows. The ultra-filtrates were subjected to reverse-phase liquid chromatography using a 150×2.1 mm Agilent C8-reverse phase column on a Shimadzu Prominence LC, eluting the compound with a gradient of 2%-50% acetonitrile+0.1% formic acid over 5 minutes. The concentration of the compound in the column effluent was measured using an Applied Biosystems API-3200 triple quadrupole mass spectrometer equipped with a Turbo V source (electrospray sample injection) system. The counts of the characteristic parent ions of the protonated compound and product ions were converted to concentration by comparison with a standard calibration curve. The parent/daughter ion pairs that were monitored for each compound were: 166.0/82.0 (105), 166.0/82.0 (106b), 166.0/82.0 (106a), 169.0/83.0 (136), 168.2/83.0 (121), 168.1/83.0 (122a), 168.1/83.0 (122b), 170.2/83.0 (134), 168.2/84.1 (135), 168.1/84.1 (137) and 169.2/82.1 (138).

[6] = Blood and brain concentrations (rats), tail vein injection; format: in vivo, Long-Evans Hooded rats; settings: male, Long-Evans Hooded, rat, 3 mg/kg; for Kp at 1 h: brain and plasma, intravenous, Table 114, read-out: Brain/Plasma Ratio; for concentration at 1 h: in vivo, 3 mg/kg tail vein injection
Procedure: Long-Evans Hooded rats (Charles River: male, 230-300 g) were dosed with solutions of test compounds in PBS by tail vein injection. The dose for all compounds was 3 mg/kg. At one hour, the animals were anesthetized with isoflurane, and then euthanized by decapitation. Trunk blood was collected into a 1.5 mL microcentrifuge tube containing 15 U Heparin, and the plasma recovered after centrifugation. Brains were dissected, weighed, immediately chilled to 4° C., and homogenized using a PowerGen 125 homogenizer in five volumes of ice-cold 2% formic acid. Proteins were precipitated from plasma and brain homogenate with nine and five volumes respectively of ice-cold 2% formic acid and clarified by centrifugation. The supernatant was ultra-filtered by centrifugation through a 3K MWCO spin column (Pall Life Sciences), following the manufacturer's instructions. The concentration of compound in the ultra-filtrate was subjected to reverse-phase liquid chromatography using a 150×2.1 mm Agent C8 reverse-phase column on a Shimadzu Prominence LC, eluting the compounds with a gradient of 2% to 50% of acetonitrile+0.1% formic acid for all compounds. The concentration of the compound in the column effluent was measured using an Applied Biosystems API-3200 triple quadrupole mass spectrometer equipped with an electrospray sample injection system. The counts of the characteristic parent and product ions of each test compound were converted to concentration units by comparison with a standard curve.

[7] = as above; format: in vivo, Long-Evans Hooded rats; settings: male, Long-Evans Hooded, rat, plasma, iv, 3 mg/kg, 3 mg/kg tail vein injection, read-out: Plasma Terminal Half-life (converted)
[8] = test system: muscarinic M3 receptors in the salivary glands; assay: In vivo inositol phosphate increase in salivary glands, Example 44; set-up: species or system Long Evans Hooded rats; settings: rat, 3 mg/kg sc
Procedure: as §1, §2

in vitro = in vitro ADME; settings: PAMPA, pH 7.4, 400 μM, pH 7.4, 24 hours, room temperature; read-out: PAMPA Permeability Coefficient (×10^6)
Procedure: PAMPA is a useful in vitro model for predicting the passive diffusion of drugs across the blood-brain barrier (Li, D et al Eur jour of Med Chem 38 (2003) 223-232).
Compounds were diluted in a 100 mM phosphate buffer (pH 7.4) to a concentration of 400 μM and the stock solutions were placed into a 96-well filter plate (Millipore, #MAIPN4510) pre-wetted with 20 mg/mL porcine brain polar lipid extract in 100% dodecane (Avanti, #131022) and placed into a 96-well acceptor plate (Millipore, #MSSACCEPTOR) whose wells were filled with the same phosphate buffer as in the filter plate. This assembly was incubated at room temperature for 24 hours. The experiment was halted by separating the filter plate from the acceptor plate. Aliquots were removed from the filter plate wells, acceptor plate wells, and stock solutions, and 1% trifluoroacetic acid was added to each. All solutions were measured by LC/UV, and passive diffusion rates were calculated using the peak area values (Avdeef, Alex. 2003. Page 147 in Absorption and Drug Development. Hoboken, N.J.: John Wiley & Sons).

[9] = read-out: Brain Concentration at 1 hr
[10] = read-out: Plasma Concentration at 1 hr

SMILES | reduction of salivation caused by transdermal iontophoretic delivery of Compound 3 (anesthetized rats) | block of increase in salivary gland inositol phosphate caused by Compound 3 [1] | inhibition of salivary gland inositol phosphate response to MCD-386 [1] | huM3/A9L Smax [2] [%] | huM3/A9L Potency relative to carbachol [2] | huM1/A9L Smax [3] [%] | huM1/A9L Potency relative to carbachol [3] | Loss at 6 hrs (%) [5] [%] | Kp at 1 h [6] | concentration at 1 h [6, 9] [µM] | concentration at 1 h [6, 10] [µM] | half-life [7] [h] | Papp at 24 h, 400 µM (in vitro) [×10⁻⁶ cm/s] | other results
CCN(CC)CC#CCOC(=O)C(O)(c1ccccc1)C1CCCCC1 (stereo not shown) [oxybutinin] | reduced salivation, but were less effective | less effective | less effective | – | – | – | – | – | – | – | – | – | – | –
CN1CCc2cccc3c2[C@H]1Cc1ccc(O)c(O)c1-3 [APO, reference compound] | – | – | – | – | – | – | – | – | – | – | – | – | – | Climbing Mean (CD-I mice): 51.7 s
Cc1noc(C23CNCC2C3)n1 (racemic) [Compound 105, 5-(3-Azabicyclo[3.1.0]hexan-1-yl)-3-methyl-1,2,4-oxadiazole] | – | – | – | 33 | 0.17 | 58 | 0.78 | 27 | 0.38 | 4.4 | 15 | 1.1 | 4.49 | Increase in Inositol Phosphate in Hippocampus/Control ([4]; 5 mmole/kg LiCl): 563%; Increase in Inositol Phosphate in Salivary Gland/Control ([8]; 5 mmole/kg LiCl): 219%
NC(=O)C(c1ccccc1)(c1ccccc1)[C@@H]1CCN(CCc2ccc3c(c2)CCO3)C1 [darifenacin] | reduced salivation, but were less effective | less effective | less effective | – | – | – | – | – | – | – | – | – | – | –
[2H]C1([2H])NC[C@@]2(c3nc(C)no3)C[C@@H]12 [Compound 122a, 5-((1R,5R)-4,4-d2-3-azabicyclo[3.1.0]hexan-1-yl)-3-methyl-1,2,4-oxadiazole] | – | – | – | 44 | 0.38 | 77 | 1.09 | 20 | 0.59 | 5 | 12.2 | 0.97 | 3.93 | Increase in Inositol Phosphate in Hippocampus/Control ([4]; 3 mmole/kg LiCl): 487%; Increase in Inositol Phosphate in Salivary Gland/Control ([8]; 3 mmole/kg LiCl): 182%
